Assay results from patent US4518597A, “Substituted benzoxazin-2-ones and pharmaceutical compositions containing them” (Dr. Karl Thomae GmbH, priority 1982, dated 1985).

Tests used:
primary hemostasis = assay: Determination of the prolongation of bleeding time in conscious mice; assay type: in vivo; details: Mus musculus, 1 h, 10 mg/kg oral, one hour, as compared to a control group, read-out: Prolongation of Bleeding Time after One Hour (%)
Procedure: Since, in the event of injury, the first rapid cessation of bleeding is effected by the adhesion and aggregation of the thrombocytes at the vessel wall, the functioning of the thrombocytes can easily be determined by measuring the bleeding time with a standardized injury. The normal bleeding time in humans is between 1 and 3 minutes, assuming that there are sufficient intact, effective thrombocytes. If the number of thrombocytes is normal and the bleeding time is prolonged, this signifies an abnormality in the thrombocytes. This is found in some inborn errors of thrombocyte function. If, on the other hand, it is desired to prevent spontaneous aggregation of the thrombocytes and occlusion in the arterial system by drugs, successful therapy affecting the thrombocytes should prolong the bleeding time. Therefore, with use of an antithrombotic substance, a prolongation of the bleeding time is expected. Also, there should be a normal coagulation time since the plasma coagulation system is not affected.
To measure the bleeding time, 10 mg/kg of the test compounds were administered orally to conscious mice. After one hour, 0.5 mm of the tip of the tail of each mouse was cut off, and droplets of blood were gently removed with filter paper every 30 seconds. The number of drops of blood thus obtained gives a bleeding time (5 animals per experiment).
The results in the following table represent the prolongation of the bleeding time in percent as compared to a control group.

[1] = tested on: phosphodiesterase (PDE) from human blood platelets; assay: PDE inhibition (phosphodiesterase from human blood platelets, 3H-cAMP hydrolysis); assay type: biochemical; details: human platelet PDE, 1 μmol/liter 3H-cAMP, pH 7.4, 15 minutes at 37° C.
Procedure: cAMP is hydrolyzed to AMP by phosphodiesterase (PDE) from various sources, including blood platelets.
The phosphodiesterase used was prepared by centrifugal extraction at 10,000 g from human blood platelets which were frozen in water and then thawed.
A quantity of 0.3 ml of a mixture containing 0.1 mol/liter of […] (pH 7.4), 3 mmols/liter of magnesium chloride, 1 mmol/liter of AMP, 1 μmol/liter of ^3 H-cAMP (specific activity about 10 MBq/μmol), PDE, and the inhibitor under investigation (water in the case of the control) was incubated for 15 minutes at 37° C. […] From a comparison of the results for inhibitor and control cases, the concentration of the respective inhibitor necessary for a 50% inhibiting effect (IC50) was calculated.

thrombocyte aggregation = assay: Antithrombotic activity: collagen-induced thrombocyte aggregation in platelet-rich plasma (Born and Cross); assay type: cell-based; details: Homo sapiens, 50% change in optical density, ten minutes at 37° C.
Procedure: The thrombocyte aggregation is determined in platelet-rich plasma from healthy test subjects using the method of Born and Cross [J. Physiol. 170, 397 (1964)]. To inhibit coagulation, the blood is mixed with 3.14 percent of sodium citrate in a volume ratio of 1:10.
The pattern of the decrease in optical density of the platelet suspension after administration of the aggregation-initiating substance is measured photometrically and recorded. The speed of aggregation is deduced from the angle of inclination of the density curve. The point of the curve where there is the most light transmittance is used to calculate the optical density.
The quantity of collagen used is as small as possible, but sufficient to produce an irreversible reaction curve. The standard commercial collagen made by Hormonchemie of Munich is used. Before the collagen is administered, the plasma is incubated with the substance for ten minutes at 37° C.
From the measurements obtained, and EC50 is obtained graphically, relating to a 50% change in optical density by way of an inhibition of aggregation.

mice = assay: Acute toxicity after oral administration of a single dose; assay type: in vivo; details: observation period 14 days; for Approximate Acute Toxicity: groups of ten, single oral dose; for animals died: single oral dose 1000 mg
Procedure: The acute toxicity of the test compounds was determined, as a guide, in groups of ten mice, after oral administration of a single dose (observation period: 14 days): […]

| SMILES | change in vivo at 10 mg/kg (primary hemostasis) | IC50 [1] | EC50 (thrombocyte aggregation) | Approximate Acute Toxicity (mice) | animals died (mice) |
| --- | --- | --- | --- | --- | --- |
| CC1(C)OC(=O)Nc2ccc(OCCCCS(=N)(=O)c3ccc(O)cc3)cc21 (centres unmarked) [B, 6-[4-(4-hydroxy-phenylsulfoximino)-butoxy]-4,4-dimethyl-4H-3,1-benzoxazin-2-one] | > 263% | 230 nM | 280 nM | 1000 mg | 0 out of 10 animals died |
| COc1ccc(S(=N)(=O)CCCCOc2ccc3c(c2)C(C)(C)OC(=O)N3)cc1 (centres unmarked) [C, 6-[4-(4-methoxy-phenylsulfoximino)-butoxy]-4,4-dimethyl-4H-3,1-benzoxazin-2-one] | > 241% | 130 nM | 270 nM | 1000 mg | 0 out of 10 animals died |
| CC1(C)OC(=O)Nc2ccc(OCCCC[S+]([O-])c3ccc(Cl)cc3)cc21 (centres unmarked) [Compound A, 6-[4-(4-chloro-phenylsulfinyl)-butoxyl]-4,4-dimethyl-4H-3,1-benzoxazin-2-one] | > 248% | 240 nM | 340 nM | 1000 mg | 0 out of 10 animals died |
| CC1(C)OC(=O)Nc2ccc(OCCCCS(=N)(=O)c3ccc(Br)cc3)cc21 (centres unmarked) [Compound I, 6-[4-(4-bromo-phenylsulfoximino)-butoxy]-4,4-dimethyl-4H-3,1-benzoxazin-2-one] | > 220% | 110 nM | 330 nM |  |  |
| Cc1ccc([S+]([O-])CCCCOc2ccc3c(c2)C(C)(C)OC(=O)N3)cc1 (centres unmarked) [D, 6-[4-(4-methyl-phenylsulfinyl)-butoxy]-4,4-dimethyl-4H-3,1-benzoxazin-2-one] | > 250% | 210 nM | 330 nM | 1000 mg | 0 out of 10 animals died |
| CC1(C)OC(=O)Nc2ccc(OCCCC[S+]([O-])c3ccc(C4CCCCC4)cc3)cc21 (centres unmarked) [E, 6-[4-(4-cyclohexyl-phenylsulfinyl)-butoxy]-4,4-dimethyl-4H-3,1-benzoxazin-2-one] | 46% | 78 nM | 320 nM | 1000 mg | 0 out of 10 animals died |
| CC1(C)OC(=O)Nc2ccc(OCCCCS(=N)(=O)c3ccc(Cl)c(Cl)c3)cc21 (centres unmarked) [F, 6-[4-(3,4-dichloro-phenylsulfoximino)-butoxy]-4,4-dimethyl-4H-3,1-benzoxazin-2-one] | > 275% | 42 nM | 210 nM |  |  |
| COc1cccc(S(=N)(=O)CCCCOc2ccc3c(c2)C(C)(C)OC(=O)N3)c1 (centres unmarked) [G] | > 245% | 77 nM | 270 nM |  |  |
| CC1(C)OC(=O)Nc2ccc(OCCCCS(=N)(=O)c3ccc(F)cc3)cc21 (centres unmarked) [H, 6-[4-(4-fluoro-phenylsulfoximino)-butoxy]-4,4-dimethyl-4H-3,1-benzoxazin-2-one] | > 211% | 180 nM | 320 nM |  |  |
| O=C1Nc2ccc(OCCCC[S+]([O-])c3ccccc3)cc2CO1 (centres unmarked) [K, 6-(4-phenylsulfinyl-butoxy)-4H-3,1-benzoxazin-2-one] | 121% | 1500 nM | 1900 nM |  |  |
| CC1(C)OC(=O)Nc2ccc(OCCCC[S+]([O-])c3ccc(Br)cc3)cc21 (centres unmarked) [L, 6-[4-(4-bromo-phenylsulfinyl)-butoxy]-4,4-dimethyl-4H-3,1-benzoxazin-2-one] | > 266% | 240 nM | 420 nM |  |  |
| Cc1cc(S(=N)(=O)CCCCOc2ccc3c(c2)C(C)(C)OC(=O)N3)ccc1Br (centres unmarked) [M, 6-[4-(4-bromo-3-methyl-phenylsulfoximino)-butoxy]-4,4-dimethyl-4H-3,1-benzoxazin-2-one] | 100% | 66 nM | 250 nM |  |  |
| Cc1ccc(S(=N)(=O)CCCCOc2ccc3c(c2)C(C)(C)OC(=O)N3)cc1 (centres unmarked) [N, 6-[4-(4-methyl-phenylsulfoximino)-butoxy]-4,4-dimethyl-4H-3,1-benzoxazin-2-one] | 63% | 65 nM | 220 nM |  |  |
| COc1ccc(S(=N)(=O)CCCCOc2ccc3c(c2)C(C)(C)OC(=O)N3)cc1OC (centres unmarked) [O, 6-[4-(3,4-dimethoxy-phenylsulfoximino)-butoxy]-4,4-dimethyl-4H-3,1-benzoxazin-2-one] | > 227% | 200 nM | 270 nM |  |  |
| CC1(C)OC(=O)Nc2ccc(OCCCC[S+]([O-])c3cc(Br)c(N)c(Br)c3)cc21 (centres unmarked) [P, 6-[4-(4-amino-3,5-dibromo-phenylsulfinyl)-butoxy]-4,4-dimethyl-4H-3,1-benzoxazin-2-one] | 73% | 56 nM | 550 nM |  |  |
| CC1(C)OC(=O)Nc2ccc(OCCCCS(=N)(=O)c3ccc(-c4ccccc4)cc3)cc21 (centres unmarked) [Q, 6-[4-(4-biphenylyl-sulfoximino)-butoxy]-4,4-dimethyl-4H-3,1-benzoxazin-2-one] | 128% | 6.8 nM | 250 nM |  |  |
| COc1ccc(S(=O)(CCCCOc2ccc3c(c2)C(C)(C)OC(=O)N3)=NC(C)=O)cc1OC (centres unmarked) [R, 6-[4-(3,4-dimethoxy-N-acetyl-phenylsulfoximino)-butoxy]-4,4-dimethyl-4H-3,1-benzoxazin-2-one] | > 241% | 710 nM | 2300 nM | 1000 mg | 0 out of 10 animals died |
| CC(=O)N=S(=O)(CCCCOc1ccc2c(c1)C(C)(C)OC(=O)N2)c1cc(C(C)(C)C)c(O)c(C(C)(C)C)c1 (centres unmarked) [S, 6-[4-(3,5-di-tert.butyl-4-hydroxy-N-acetyl-phenylsulfoximino)-butoxy]-4,4-dimethyl-4H-3,1-benzoxazin-2-one] | > 226% | 77 nM | 2200 nM | 1000 mg | 0 out of 10 animals died |
| Cc1ccc(S(=N)(=O)CCCCOc2cc3c(cc2Br)NC(=O)OC3(C)C)cc1 (centres unmarked) [T, 7-bromo-4,4-dimethyl-6-[4-(4-methyl-phenylsulfoximino)-butoxy]-4H-3,1-benzoxazin-2-one] | 60% | 1 nM | 69 nM | 1000 mg | 0 out of 10 animals died |
| Cc1ccc([S+]([O-])CCCCOc2cc3c(cc2Cl)NC(=O)OC3(C)C)cc1 (centres unmarked) [U, 7-chloro-4,4-dimethyl-6-[4-(4-methyl-phenylsulfinyl)-butoxy]-4H-3,1-benzoxazin-2-one] | > 230% | 3.4 nM | 28 nM | 1000 mg | 0 out of 10 animals died |
| CC1(C)OC(=O)Nc2cc(Br)c(OCCCC[S+]([O-])c3ccc(Cl)c(Cl)c3)cc21 (centres unmarked) [V, 7-bromo-6-[4-(3,4-dichloro-phenylsulfinyl)-butoxy]-4,4-dimethyl-4H-3,1-benzoxazin-2-one] | 100% | 3.8 nM | 44 nM | 1000 mg | 0 out of 10 animals died |
